Measurements from ChEMBL document CHEMBL5131455 (Bioorg Med Chem Lett, 2022).
pIC50: −log10 of the molar value. Values after ≈ are worked out from the molar mass of the structure shown.

Legend:
[1] = Solubility of the compound in chloride free pH 6.8 phosphate buffer incubated up to 72 hrs by shake flask method; format: physicochemical
[2] = Solubility of the compound in pH 1 0.1N HCl buffer incubated up to 72 hrs by shake flask method; format: physicochemical
[3] = target: Tyrosine-protein kinase ABL1 (Homo sapiens, UniProt P00519); assay: Inhibition of transphosphorylation of ABL1 SH1-3 domain (64 to 515 residues) (unknown origin) expressed in Escherichia coli using FITC-Ahx-EAIYAAPFAKKK-NH2) as substrate measured after 60 mins by caliper method
Sequence of Tyrosine-protein kinase ABL1 (P00519 whole entry, the tested form may be a part): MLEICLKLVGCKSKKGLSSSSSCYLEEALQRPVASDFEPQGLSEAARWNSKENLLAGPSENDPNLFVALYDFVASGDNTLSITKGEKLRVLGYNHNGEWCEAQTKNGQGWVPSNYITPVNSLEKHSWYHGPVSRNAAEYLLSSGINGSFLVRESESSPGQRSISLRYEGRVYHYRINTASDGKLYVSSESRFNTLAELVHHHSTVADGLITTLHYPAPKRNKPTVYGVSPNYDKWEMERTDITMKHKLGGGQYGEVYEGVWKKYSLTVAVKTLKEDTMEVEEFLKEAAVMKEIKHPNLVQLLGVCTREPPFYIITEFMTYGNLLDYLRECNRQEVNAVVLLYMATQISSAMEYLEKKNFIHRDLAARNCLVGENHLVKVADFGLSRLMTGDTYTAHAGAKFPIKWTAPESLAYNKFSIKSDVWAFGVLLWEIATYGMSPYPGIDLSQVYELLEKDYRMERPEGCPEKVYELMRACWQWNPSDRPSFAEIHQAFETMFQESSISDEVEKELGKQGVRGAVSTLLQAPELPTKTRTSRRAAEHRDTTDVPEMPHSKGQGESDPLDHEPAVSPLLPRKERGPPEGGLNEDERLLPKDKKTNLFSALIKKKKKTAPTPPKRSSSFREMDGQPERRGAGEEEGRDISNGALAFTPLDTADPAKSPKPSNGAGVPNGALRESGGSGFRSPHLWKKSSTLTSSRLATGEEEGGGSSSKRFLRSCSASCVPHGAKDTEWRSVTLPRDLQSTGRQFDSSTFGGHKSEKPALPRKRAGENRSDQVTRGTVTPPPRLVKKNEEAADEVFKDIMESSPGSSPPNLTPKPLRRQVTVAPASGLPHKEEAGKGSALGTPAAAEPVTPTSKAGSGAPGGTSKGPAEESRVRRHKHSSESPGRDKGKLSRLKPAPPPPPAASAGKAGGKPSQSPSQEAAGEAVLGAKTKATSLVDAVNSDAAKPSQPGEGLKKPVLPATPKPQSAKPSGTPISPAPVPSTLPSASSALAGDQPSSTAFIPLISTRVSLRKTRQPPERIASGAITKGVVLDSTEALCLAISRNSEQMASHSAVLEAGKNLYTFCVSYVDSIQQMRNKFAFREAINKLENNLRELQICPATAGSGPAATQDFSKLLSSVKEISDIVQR

BaF3 = assay: Antiproliferative activity against mouse BaF3 cells expressing BCR-ABL by ATP-luminescence assay; format: functional, cell-based
[4] = Antiproliferative activity against human KBM-7 cells measured after 72 hrs by celltiter-glo luminescent cell viability assay; format: functional, cell-based
[5] = Antiproliferative activity against human CMK-86 cells measured after 72 hrs by celltiter-glo luminescent cell viability assay; format: functional, cell-based
[6] = Antiproliferative activity against human SNU-213 cells measured after 72 hrs by celltiter-glo luminescent cell viability assay; format: functional, cell-based
[7] = Antiproliferative activity against human Fu97 cells measured after 72 hrs by celltiter-glo luminescent cell viability assay; format: functional, cell-based
Mu-type opioid receptor [8] = target: T1, Mu-type opioid receptor (Homo sapiens, UniProt P35372); assay: Displacement of [3H]morphine binding to recombinant human full-length MOR expressed in CHO-K1 cells at 30 uM measured after 60 mins by scintillation counting analysis relative to control; format: cell-based
T1 sequence (P35372 whole entry): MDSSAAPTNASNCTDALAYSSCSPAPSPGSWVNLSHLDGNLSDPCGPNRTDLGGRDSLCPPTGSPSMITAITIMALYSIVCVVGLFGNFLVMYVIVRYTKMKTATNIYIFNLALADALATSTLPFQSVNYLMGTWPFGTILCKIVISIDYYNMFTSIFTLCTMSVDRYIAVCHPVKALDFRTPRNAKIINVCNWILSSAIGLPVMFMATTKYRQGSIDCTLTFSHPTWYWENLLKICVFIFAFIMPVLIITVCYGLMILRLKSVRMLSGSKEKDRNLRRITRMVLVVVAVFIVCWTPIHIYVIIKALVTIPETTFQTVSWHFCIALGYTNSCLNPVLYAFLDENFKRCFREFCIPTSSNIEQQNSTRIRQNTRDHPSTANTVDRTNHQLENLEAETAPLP

Mu-type opioid receptor [9] = target: T1, Mu-type opioid receptor; assay: Displacement of [3H]morphine binding to recombinant human full-length MOR expressed in CHO-K1 cells measured after 60 mins by scintillation counting analysis; format: cell-based
[10] = target: Voltage-gated inwardly rectifying potassium channel KCNH2 (Homo sapiens, UniProt Q12809); assay: Displacement of [3H]dofetilide from human ERG expressed in HEK293 cells measured after 45 mins by topcount scintillation counting method; format: toxicity, cell-based
Sequence of Voltage-gated inwardly rectifying potassium channel KCNH2 (Q12809 whole entry): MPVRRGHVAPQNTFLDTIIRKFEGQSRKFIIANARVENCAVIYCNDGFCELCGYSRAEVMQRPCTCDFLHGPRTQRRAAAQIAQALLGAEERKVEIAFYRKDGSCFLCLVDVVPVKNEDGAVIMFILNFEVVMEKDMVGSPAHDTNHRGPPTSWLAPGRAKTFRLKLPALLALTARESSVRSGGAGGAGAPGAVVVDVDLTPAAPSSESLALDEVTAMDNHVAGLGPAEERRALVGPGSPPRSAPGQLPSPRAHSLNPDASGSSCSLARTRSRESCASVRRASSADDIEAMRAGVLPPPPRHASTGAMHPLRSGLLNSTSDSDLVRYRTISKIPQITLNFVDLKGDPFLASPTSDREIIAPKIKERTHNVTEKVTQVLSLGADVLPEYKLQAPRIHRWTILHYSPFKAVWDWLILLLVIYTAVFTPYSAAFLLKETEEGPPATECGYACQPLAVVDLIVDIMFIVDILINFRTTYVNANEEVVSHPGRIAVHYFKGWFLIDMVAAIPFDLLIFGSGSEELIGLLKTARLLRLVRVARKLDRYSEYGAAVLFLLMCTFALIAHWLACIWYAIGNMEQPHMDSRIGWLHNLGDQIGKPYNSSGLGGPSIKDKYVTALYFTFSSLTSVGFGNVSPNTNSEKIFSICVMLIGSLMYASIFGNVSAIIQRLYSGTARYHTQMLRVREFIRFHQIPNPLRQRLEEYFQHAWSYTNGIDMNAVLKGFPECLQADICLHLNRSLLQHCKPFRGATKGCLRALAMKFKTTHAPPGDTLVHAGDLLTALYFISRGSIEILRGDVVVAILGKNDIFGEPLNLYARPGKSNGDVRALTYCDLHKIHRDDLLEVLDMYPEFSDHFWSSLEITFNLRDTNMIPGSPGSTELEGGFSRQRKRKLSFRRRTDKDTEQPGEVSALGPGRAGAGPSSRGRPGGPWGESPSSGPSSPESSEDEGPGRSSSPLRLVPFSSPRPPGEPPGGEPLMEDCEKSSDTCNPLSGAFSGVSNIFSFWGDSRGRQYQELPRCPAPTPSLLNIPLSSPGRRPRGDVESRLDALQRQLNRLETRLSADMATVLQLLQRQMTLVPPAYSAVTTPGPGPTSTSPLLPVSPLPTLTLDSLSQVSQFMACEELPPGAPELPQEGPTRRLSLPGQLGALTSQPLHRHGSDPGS

hERG (KCNH2) = hERG (KCNH2) (Homo sapiens, UniProt Q12809); assay: Displacement of [3H]dofetilide from human ERG expressed in HEK293 cells at 30 uM measured after 45 mins by topcount scintillation counting method relative to control; format: toxicity, cell-based; conditions: HEK293 cells that express hERG, probe [3H]dofetilide
Sequence of hERG (KCNH2) (Q12809 whole entry): as above

[11] = Apparent permeability across apical to basolateral side in human Caco-2 cells; format: ADME, cell-based
[12] = Apparent permeability across basolateral to apical side in human Caco-2 cells; format: ADME, cell-based
[13] = Efflux ratio of apparent permeability across basolateral to apical side over apical to basolateral side in human Caco2 cells; format: ADME, cell-based; conditions: Caco-2
MDR1 = assay: Efflux ratio of apparent permeability across basolateral to apical side over apical to basolateral side in MDCK-MDR1 cells; format: ADME, cell-based, Canis lupus familiaris; conditions: dog
[14] = Apparent permeability in MDCK cells; format: ADME, cell-based, Canis lupus familiaris; conditions: dog, MDCK-MDR1
[15] = Intrinsic clearance in mouse liver microsomes; format: ADME, Microsome; conditions: read-out: CLH
[16] = Intrinsic clearance in rat liver microsomes; format: ADME, Microsome; conditions: read-out: CLH
[17] = Intrinsic clearance in dog liver microsomes; format: ADME, Canis lupus familiaris, Microsome; conditions: read-out: CLH
[18] = Intrinsic clearance in human liver microsomes; format: ADME, Microsome; conditions: read-out: CLH
[19] = Clearance in C57BL/6 mouse at 1 mg/kg, iv; format: ADME, organism-based; conditions: in vivo
[20] = Volume of distribution at steady state in C57BL/6 mouse at 1 mg/kg, iv; format: ADME, organism-based; conditions: in vivo, read-out: Vdss
[21] = Half life in C57BL/6 mouse at 1 mg/kg, iv; format: ADME, organism-based; conditions: in vivo
[22] = Dose normalized AUC (infinity) in C57BL/6 mouse at 1 mg/kg, iv; format: ADME, organism-based; conditions: in vivo
[23] = Dose normalized AUC (infinity) in C57BL/6 mouse brain at 10 mg/kg, ip measured up to 4 hrs; format: ADME, organism-based; conditions: in vivo
[24] = Tmax in C57BL/6 mouse at 30 mg/kg, ip; format: ADME, organism-based; conditions: in vivo
[25] = Dose normalized Cmax in C57BL/6 mouse at 30 mg/kg, ip; format: ADME, organism-based; conditions: in vivo
[26] = Dose normalized AUC (infinity) in C57BL/6 mouse blood at 30 mg/kg, ip; format: ADME, organism-based; conditions: in vivo
[27] = Dose normalized AUC (infinity) in C57BL/6 mouse brain at 30 mg/kg, ip; format: ADME, organism-based; conditions: in vivo
[28] = Unbound brain to plasma concentration ratio in C57BL/6 mouse brain at 30 mg/kg, ip; format: ADME, organism-based; conditions: brain and plasma, read-out: K(p,uu,brain)
[29] = Tmax in C57BL/6 mouse at 30 mg/kg, po; format: ADME, organism-based; conditions: in vivo
[30] = Dose normalized Cmax in C57BL/6 mouse at 30 mg/kg, po; format: ADME, organism-based; conditions: in vivo
[31] = Dose normalized AUC (infinity) in C57BL/6 mouse blood at 30 mg/kg, po; format: ADME, organism-based; conditions: in vivo
[32] = Ratio of drug level in C57BL/6 mouse blood to brain at 1 mg/kg, iv measured after 5 mins; format: ADME, organism-based; conditions: in vivo
[33] = Ratio of drug level in C57BL/6 mouse blood to brain at 10 mg/kg, ip measured at 4 hrs; format: ADME, organism-based; conditions: in vivo
[34] = Ratio of drug level in C57BL/6 mouse blood to brain at 30 mg/kg, ip measured at 4 hrs; format: ADME, organism-based; conditions: in vivo
[35] = Drug level in C57BL/6 mouse brain at 30 mg/kg, ip measured at 4 hrs; format: ADME, organism-based; conditions: read-out: Drug uptake
[36] = Ratio of drug level in C57BL/6 mouse brain at 30 mg/kg, ip to IC50 for antiproliferative activity against mouse BaF3 cells expressing BCR-ABL by ATP-luminescence assay; format: organism-based; conditions: in vivo
[37] = AUC in rat plasma at 30 mg/kg, po in presence of [14-C]asciminib relative to radioactivity of [14-C] AUC; format: ADME, organism-based; conditions: in vivo
[38] = Drug uptake in male rat central nervous system at 30 mg/kg, po; format: ADME, organism-based; conditions: in vivo, BLD = below limit of detection
[39] = Drug uptake in female rat central nervous system at 30 mg/kg, po; format: ADME, organism-based; conditions: in vivo
[40] = AUC (0 to 8 hrs) in rat plasma at 30 mg/kg, po relative to radioactivity of 14-C AUC; format: ADME, organism-based; conditions: in vivo
[41] = AUC (0 to 8 hrs) in human plasma at 80 mg, po qd administered as water suspension by HPLC analysis relative to radioactivity of 14-C AUC; format: ADME, organism-based; conditions: in vivo

Question: What does the source list for `O=C(Nc1ccc(OC(F)(F)F)cc1)c1cncc(-c2cccnc2)c1`?
Answer: solubility thermodynamic at 72 h [1]: 3 µg/mL (≈ 8.35 µM); solubility thermodynamic at 72 h [2]: > 1500 µg/mL; pIC50 [3]: 7.48; GI50 (BaF3): 0.069 µM; pIC50 (BaF3): 7.12; pIC50 ([4]; Homo sapiens, KBM-7, 72 h): 6.71; %max ([4]; time 72 hrs): 98%; pIC50 ([5]; Homo sapiens, CMK-86, 72 h): 5.80; %max ([5]; time 72 hrs): 62%; pIC50 ([6]; Homo sapiens, SNU-213, 72 h): 4.60; %max ([6]; time 72 hrs): 62%; pIC50 ([7]; Homo sapiens, Fu97, 72 h): < 4.52; %max ([7]; time 72 hrs): 55%; inhibition (Mu-type opioid receptor [8]): > 50%; AC50 (Mu-type opioid receptor [9]): 9.78 µM; AC50 [10]: 2.8 µM; inhibition at 0.75 h, 30 µM (hERG (KCNH2)): > 50%; Papp A→B [11]: 27.1 ×10⁻⁶ cm/s; Papp B→A [12]: 11.1 ×10⁻⁶ cm/s; efflux ratio [13]: 0.41; efflux ratio (MDR1): 1.03; Papp [14]: 24.5 ×10⁻⁶ cm/s; CLint scaled [15]: 31 mL/min/kg; CLint scaled [16]: 56 mL/min/kg; CLint scaled [17]: 30 mL/min/kg; CLint scaled [18]: 16 mL/min/kg; clearance [19]: 17 mL/min/kg; Vd [20]: 1.2 L/kg; half-life [21]: 0.9 h; AUC/dose [22]: 2875 nM·h; AUC/dose [23]: 15720 nM·h; Tmax [24]: 1.8 h; Cmax/dose [25]: 0.643 µM; AUC/dose [26]: 6672 nM·h; AUC/dose [27]: 27926 nM·h; Kp uu [28]: 0.91; Tmax [29]: 1 h; Cmax/dose [30]: 0.629 µM; AUC/dose [31]: 5139 nM·h; Ratio [32]: 3.29; Ratio [33]: 2.32; Ratio [34]: 2.65; concentration at 4 h [35]: 34.9 µM; Ratio [36]: 465

Question: Which Drug uptake [37] does the source give for `O=C1CCN(c2ncc(C(=O)Nc3ccc(OC(F)(F)Cl)cc3)cc2-c2ccn[nH]2)C1` here?
Answer: 1.88%

Question: Which results are given for `O=C(Nc1ccc(OC(F)(F)Cl)cc1)c1cnc(N2CC[C@@H](O)C2)c(-c2ccn[nH]2)c1` [ASCIMINIB]?
Answer: Drug uptake [38]: Bld; Drug uptake [39]: Active; Drug uptake [40]: 86%; Drug uptake [41]: 92.7%; solubility thermodynamic at 72 h [1]: 4 µg/mL (≈ 8.89 µM); solubility thermodynamic at 72 h [2]: > 1500 µg/mL; Papp [14]: 21.1 ×10⁻⁶ cm/s

Question: With `O=C(Nc1ccc(OC(F)(F)Cl)cc1)c1cnc(NCCC(O)CO)c(-c2ccn[nH]2)c1` (stereo not drawn) as the compound, how does the Drug uptake [37] read?
Answer: 0.39%
